Experimental findings from PMC11992225, “Antibacterial compounds against non-growing and intracellular bacteria” (npj Antimicrobials and Resistance, 2025) are described below.

The subject of one assay is non-growing UPEC CFT073. Nature of the assay: Dilution-regrowth assay (screen, hit validation, dose-response) on stationary-phase UPEC. The assay is classed as cell-based, Escherichia coli. The note with it: for EC50: Escherichia coli; for activity against non-growing UPEC in LPM (pH 5.5) compared to 1:4 CA-MHB (pH 7.4): regrowth delay and killing, Figs. 2 and 3; for Regrowth, OD600 at 6h or 8h after dilution into drug-free medium: average. The gist of the method: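 Regrowth (OD600 after 6 h, 37 °C) of diluted non-growing CFT073, following 24 h compound treatment of 24 h stationary cultures, defines activity relative to untreated control. Screen at 20 µM, validation at 20, 10, 5 µM (duplicates), dose–response in three biological replicates fitted by five-parameter logistic.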

The test system of the next assay is S. flexneri 5a M90T. In words: MIC in tryptic soy broth, S. flexneri. It counts as cell-based, Shigella flexneri. The gist of the method: (§1)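 MICs come from microdilution in CA-MHB/40 mM HEPES pH 7.4 for the UPEC, Pseudomonas and Staphylococcus strains, and in TSB for Shigella. UPEC also tested in LPM/30 mM MES pH 5.5.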
The next assay deals with P. aeruginosa DSM1117. Nature of the assay: MIC, standard microdilution assay, growing P. aeruginosa. It counts as cell-based, Pseudomonas aeruginosa. The settings on record: Pseudomonas aeruginosa, DSM1117; P. aeruginosa; CA-MHB pH 7.4; read-out: MIC (μM) CA-MHB. Put shortly:
as §1
For orientation: Dilution methods test growth across graded concentrations, often in twofold steps.

In assay [1] the test system is non-growing P. aeruginosa DSM1117. Nature of the assay: Dilution-regrowth assay (OD600, start-growth-time) on stationary-phase P. aeruginosa. The note with it: P. aeruginosa; for Regrowth, OD600 at 6h or 8h after dilution into drug-free medium: average. It counts as cell-based, Pseudomonas aeruginosa. The protocol: To determine the spectrum of activity of the compounds that were effective against non-growing UPEC, we further assessed their efficacy against the well-characterized Gram-negative and Gram-positive reference strains P. aeruginosa DSM1117 and S. aureus DSM2569, respectively. The cultures were grown and treated for 24 h in 1:4 CA-MHB (pH 7.4). […].
For better characterization of the compounds causing the strongest regrowth delay, we performed the regrowth step of the dilution-regrowth experiments on a plate reader, measuring the OD600 at 20-min intervals for over 20 h instead of using an endpoint measurement. This approach allowed us to capture the time when cultures reached a threshold optical density (start-growth-time, SGT[15]).
Overnight cultures of UPEC, P. aeruginosa and S. aureus were grown in test tubes containing 3 ml of LB broth (~16 h), then diluted 1:100 into either 1:4 diluted CA-MHB medium buffered with 40 mM HEPES (pH 7.4) or, in case of UPEC, into LPM medium[25] supplemented with 49 µM MgCl2 and buffered with 30 mM MES (pH 5.5). The cultures were incubated for 24 h in non-baffled Erlenmeyer flasks at 37 °C with shaking at 200 rpm.
For P. aeruginosa and S. aureus, dose–response analysis was conducted in 96-well plates with a 200 μl assay volume, following the procedure used for screening assay validation experiments. Aliquots of the 39 compounds active against non-growing UPEC were obtained from SelleckChem and MedChem Express. Stock solutions were prepared and stored according to the manufacturers’ instructions, then diluted in 10% DMSO before use. Cultures were incubated for 24 h in 1:4 diluted CA-MHB medium under the same conditions used for UPEC cultivation. In preliminary experiments, each compound was tested at a concentration of 20 μM in the dilution-regrowth assay with 4 technical replicates. Regrowth was monitored using a microplate reader at 37 °C with continuous shaking, and OD600 was recorded every 20 min. The time at which OD600 exceeded the threshold of 0.12 was recorded as the Start_Growth-Time.
The statistical analysis of all data, as well as EC50 and IC50 determination, was conducted using GraphPad Prism 10.2.3. Statistical significance of the drug effects was assessed using a one-way ANOVA followed by Dunnett’s test, comparing each treatment to the drug-free control. Statistical significance of the differences in chemical characteristics between the hit compounds and the Prestwick library was assessed using a Mann–Whitney test. Statistical significance was set at P ≤ 0.05. A five-parameter logistic equation was used for asymmetric sigmoidal curve fitting and for EC50 and IC50 determination. The Venn diagram in Fig. 1F was prepared using BioVenn web application. Characteristics of the chemical and physical properties of Prestwick library compounds were obtained from Supplementary Table S1 from reference. Characteristics of the hit compounds not included in the Prestwick library were retrieved from the PubChem database.

The mark [2] stands for this setting: E. coli in 1:4 CA-MHB (pH 7.4), drug concentration 0.25.
The mark [3] stands for this setting: E. coli in 1:4 CA-MHB (pH 7.4), drug concentration 0.5.
[4] abbreviates: E. coli in 1:4 CA-MHB (pH 7.4), drug concentration 1.
Setting [5] is: E. coli in 1:4 CA-MHB (pH 7.4), drug concentration 2.5.
The mark [6] stands for this setting: E. coli in 1:4 CA-MHB (pH 7.4), drug concentration 5.
Where [7] appears, read: E. coli in 1:4 CA-MHB (pH 7.4), drug concentration 10.
[8] abbreviates: E. coli in 1:4 CA-MHB (pH 7.4), drug concentration 30.
The mark [9] stands for this setting: E. coli in LPM (pH 5.5), drug concentration 0.25.
Setting [10] is: E. coli in LPM (pH 5.5), drug concentration 0.5.
Where [11] appears, read: E. coli in LPM (pH 5.5), drug concentration 1.
[12] abbreviates: E. coli in LPM (pH 5.5), drug concentration 2.5.
Where [13] appears, read: E. coli in LPM (pH 5.5), drug concentration 5.
Setting [14] is: E. coli in LPM (pH 5.5), drug concentration 10.
The mark [15] stands for this setting: E. coli in LPM (pH 5.5), drug concentration 30.
Where [16] appears, read: 1:4 CA-MHB pH 7.4 (black curve), medium assigned by comparison with Dataset 1, read-out: EC50 (regrowth inhibition curve, Fig. S4).
The mark [17] stands for this setting: E. coli, pH 7.4, regrowth delay of non-growing bacteria, 1:4 CA-MHB, 24 h treatment, OD600 6 h after 2500-fold dilution, read-out: EC50.
[18] abbreviates: LPM pH 5.5 (red curve), medium assigned by comparison with Dataset 1, read-out: EC50 (regrowth inhibition curve, Fig. S4).

Converted amounts (≈) assume the structure as drawn. Read-outs that look alike come from different tables or passages of the source.

Regarding `CCCCC(CC)CNC(=N)NC(=N)NCCCCCCNC(=N)NC(=N)NCC(CC)CCCC` (centres unmarked) [Alexidine], the “Regrowth, OD600 at 6h or 8h after dilution into drug-free medium (average)” value in the assay on non-growing UPEC CFT073 (setting [2]) is given as 0.643; with non-growing UPEC CFT073 (setting [3]) it was 0.630; in the assay on non-growing UPEC CFT073 (setting [4]), 0.631; in the assay with non-growing UPEC CFT073 (setting [5]), 0.636; with non-growing UPEC CFT073 (setting [6]) it was 0.622; in the assay on non-growing UPEC CFT073 (setting [7]) it was 0.568. Besides, the “Regrowth, OD600 at 6h or 8h after dilution into drug-free medium (average)” value with non-growing UPEC CFT073 (setting [8]) came to 0.074; in the assay on non-growing UPEC CFT073 (setting [9]) it was 0.604; with non-growing UPEC CFT073 (setting [10]), 0.591; with non-growing UPEC CFT073 (setting [11]), 0.602; in the assay with non-growing UPEC CFT073 (setting [12]), 0.604; in the assay on non-growing UPEC CFT073 (setting [13]) it was 0.576. The entries for the “Regrowth, OD600 at 6h or 8h after dilution into drug-free medium (average)” value in the assay on non-growing UPEC CFT073 (setting [14]) and with non-growing UPEC CFT073 (setting [15]) were 0.067 and 0.069, respectively. For the same compound, the 50% effective concentration (EC50) in the assay with non-growing UPEC CFT073 (setting [16]) worked out at 23.4 µM; in the assay with non-growing UPEC CFT073 (setting [17]), 15.6 µM; in the assay with non-growing UPEC CFT073 (setting [18]), 7.18 µM. Also, in the assay on non-growing UPEC CFT073, the “activity against non-growing UPEC in LPM (pH 5.5) compared to 1:4 CA-MHB (pH 7.4)” value is “potentiated by the low pH”. Also, the MIC in the assay on S. flexneri 5a M90T (Shigella flexneri, 5AM90T, read-out: MIC (μM) TSB) was determined as 1 µM (≈ 0.509 µg/mL).

Take `CCCCCCCCN=c1ccn(CCCCCCCCCCn2ccc(=NCCCCCCCC)cc2)cc1` [Octenidine]: the “Regrowth, OD600 at 6h or 8h after dilution into drug-free medium” value was 0.612 in the assay with non-growing UPEC CFT073 (E. coli in 1:4 CA-MHB (pH 7.4), concentration 0.25); 0.602 in the assay with non-growing UPEC CFT073 (E. coli in 1:4 CA-MHB (pH 7.4), concentration 0.5); 0.603 in the assay with non-growing UPEC CFT073 (E. coli in 1:4 CA-MHB (pH 7.4), concentration 1); 0.605 with non-growing UPEC CFT073 (E. coli in 1:4 CA-MHB (pH 7.4), concentration 2.5); 0.549 with non-growing UPEC CFT073 (E. coli in 1:4 CA-MHB (pH 7.4), concentration 5); 0.551 in the assay on non-growing UPEC CFT073 (E. coli in LPM (pH 5.5), concentration 0.25). For the same compound, the “Regrowth, OD600 at 6h or 8h after dilution into drug-free medium” value with non-growing UPEC CFT073 (E. coli in LPM (pH 5.5), concentration 0.5) is 0.543; with non-growing UPEC CFT073 (E. coli in LPM (pH 5.5), concentration 1), 0.551; in the assay with non-growing UPEC CFT073 (E. coli in LPM (pH 5.5), concentration 2.5), 0.544; in the assay with non-growing UPEC CFT073 (E. coli in LPM (pH 5.5), concentration 5) it was 0.198; in assay [1] (concentration 0.1), 0.666; in assay [1] (concentration 0.5) it was 0.602. Moreover, in assay [1] (concentration 2.5), the “Regrowth, OD600 at 6h or 8h after dilution into drug-free medium” value amounted to 0.656. For the same compound, the “Regrowth, OD600 at 6h or 8h after dilution into drug-free medium (average)” value turned out to be 0.188 with non-growing UPEC CFT073 (setting [7]); 0.074 in the assay on non-growing UPEC CFT073 (setting [8]); 0.071 with non-growing UPEC CFT073 (setting [14]); 0.077 with non-growing UPEC CFT073 (setting [15]); 0.533 in assay [1] (drug concentration 10). The 50% effective concentration (EC50) amounted to 7.95 µM in the assay on non-growing UPEC CFT073 (setting [16]); 7.67 µM with non-growing UPEC CFT073 (setting [17]); 4.41 µM in the assay on non-growing UPEC CFT073 (setting [18]); 9.99 µM in assay [1] (Pseudomonas aeruginosa, DSM1117, regrowth delay of non-growing bacteria, 1:4 CA-MHB pH 7.4, 24 h treatment, OD600 8 h after dilution, read-out: EC50). Moreover, the “activity against non-growing UPEC in LPM (pH 5.5) compared to 1:4 CA-MHB (pH 7.4)” value in the assay with non-growing UPEC CFT073 is listed as “potentiated by the low pH”. Also, the MIC in the assay with P. aeruginosa DSM1117 came to 4 µM (≈ 2.2 µg/mL).

With Plicamycin, the “Regrowth, OD600 at 6h or 8h after dilution into drug-free medium (average)” value amounted to 0.612 with non-growing UPEC CFT073 (setting [2]); 0.607 in the assay with non-growing UPEC CFT073 (setting [3]); 0.618 with non-growing UPEC CFT073 (setting [4]); 0.623 in the assay with non-growing UPEC CFT073 (setting [5]); 0.619 in the assay on non-growing UPEC CFT073 (setting [6]); 0.615 with non-growing UPEC CFT073 (setting [7]). For the same compound, the “Regrowth, OD600 at 6h or 8h after dilution into drug-free medium (average)” value in the assay on non-growing UPEC CFT073 (setting [8]) was 0.623; with non-growing UPEC CFT073 (setting [9]), 0.574; in the assay with non-growing UPEC CFT073 (setting [10]), 0.571; in the assay with non-growing UPEC CFT073 (setting [11]), 0.572; in the assay with non-growing UPEC CFT073 (setting [12]), 0.561; with non-growing UPEC CFT073 (setting [13]) it was 0.562. The “Regrowth, OD600 at 6h or 8h after dilution into drug-free medium (average)” value in the assay on non-growing UPEC CFT073 (setting [14]) stood at 0.546; with non-growing UPEC CFT073 (setting [15]), 0.390. For the same compound, the “activity against non-growing UPEC in LPM (pH 5.5) compared to 1:4 CA-MHB (pH 7.4)” value in the assay with non-growing UPEC CFT073 is reported as “potentiated by the low pH”. The “MIC (μM) TSB” value against S. flexneri 5a M90T (S. flexneri, extracellular bacteria in TSB) is more than 128 µM.

One may read the EC50 as the midpoint of the concentration-response curve. What is called MIC is the lowest concentration found to suppress growth.
